In US20150119244A1, “AGRICULTURAL USES OF HYTd” (Agrinos AS, priority 2011, published 2015):

Tested on: potatoes
Assay: Potato trial in soil infested with fungi, test vs Metam-Sodium (Example 4)
Excerpt: Three hundred liters of Metam Sodium was applied per hectare.

Which Kilos (potatoes of size 1st) does the source give for `CNC(=S)S` [Metam-Sodium] here?
Its Kilos is 0.32 Kilos.

And the Pieces (potatoes of size 1st)?
The Pieces was 1.

What about the Kilos (potatoes of size 4ta) of the same compound?
The Kilos was 3.63 Kilos.

And the Pieces (potatoes of size 4ta)?
Its Pieces is 88.

And the Kilos (potatoes of size 2d)?
The Kilos was 6.46 Kilos.

What about the Pieces (potatoes of size 2d) of the same compound?
Its Pieces is 35.

And the Kilos (potatoes of size 3d)?
Its Kilos is 2.67 Kilos.

And the Pieces (potatoes of size 3d)?
Its Pieces is 24.

What about the Kilos (potatoes of size GIANT) of the same compound?
Its Kilos is 0.43 Kilos.

What about the Pieces (potatoes of size GIANT) of the same compound?
Its Pieces is 1.

And the Kilos (potatoes of size MONO)?
The Kilos was 1.47 Kilos.

What about the Pieces (potatoes of size MONO) of the same compound?
The Pieces was 6.

And the Kilos (potatoes, TOTAL of all sizes)?
The Kilos was 15.0 Kilos.

And the Pieces (potatoes, TOTAL of all sizes)?
Its Pieces is 155.
